Data taken from patent US10512268B2, “Herbicidal compounds” (Syngenta Participations AG, priority 2015, dated 2019).

How the values were obtained:
Format in all cases: in vivo
Conditions in all cases: 1000 g/h, after 13 days
Lolium perenne (LOLPE) [1] = test: Further testing, post-emergence application
Procedure: (§1) Seeds of a variety of test species are sown in standard soil in pots (Lolium perenne (LOLPE), Solanum nigrum (SOLNI), Amaranthus retoflexus (AMARE), Setaria faberi (SETFA), Echinochloa crus-galli (ECHCG), Ipomoea hederacea (IPOHE)). After cultivation for one day (pre-emergence) or after 8 days cultivation (post-emergence) under controlled conditions in a glasshouse (at 24/16° C., day/night; 14 hours light; 65% humidity), the plants are sprayed with an aqueous spray solution derived from the formulation of the technical active ingredient in acetone/water (50:50) solution containing 0.5% Tween 20 (polyoxyethelyene sorbitan monolaurate, CAS RN 9005-64-5). Compounds are applied at 1000 g/h unless otherwise stated. The test plants are then grown in a glasshouse under controlled conditions in a glasshouse (at 24/16° C., day/night; 14 hours light; 65% humidity) and watered twice daily. After 13 days for pre and post-emergence, the test is evaluated for the percentage damage caused to the plant. The biological activities are shown in the following table on a five point scale (5=80-100%; 4=60-79%; 3=40-59%; 2=20-39%; 1=0-19%).

Solanum nigrum (SOLNI) [2] = test: Further testing, post-emergence application
Procedure: as §1

[3] = system: Echinochloa crus-galli (ECHCG); test: Further testing, post-emergence application
Procedure: as §1

Setaria faberi (SETFA) [4] = test: Further testing, post-emergence application
Procedure: as §1

[5] = system: Amaranthus retoflexus (AMARE); test: Further testing, post-emergence application
Procedure: as §1

[6] = system: Ipomoea hederacea (IPOHE); test: Further testing, post-emergence application
Procedure: as §1

Lolium perenne (LOLPE) [7] = test: Further testing, pre-emergence application
Procedure: as §1

Solanum nigrum (SOLNI) [8] = test: Further testing, pre-emergence application
Procedure: as §1

[9] = system: Echinochloa crus-galli (ECHCG); test: Further testing, pre-emergence application
Procedure: as §1

Setaria faberi (SETFA) [10] = test: Further testing, pre-emergence application
Procedure: as §1

[11] = system: Amaranthus retoflexus (AMARE); test: Further testing, pre-emergence application
Procedure: as §1

[12] = system: Ipomoea hederacea (IPOHE); test: Further testing, pre-emergence application
Procedure: as §1

Row | SMILES | percentage damage caused to the plant, five point scale (Lolium perenne (LOLPE) [1]) | percentage damage caused to the plant, five point scale (Solanum nigrum (SOLNI) [2]) | percentage damage caused to the plant, five point scale [3] | percentage damage caused to the plant, five point scale (Setaria faberi (SETFA) [4]) | percentage damage caused to the plant, five point scale [5] | percentage damage caused to the plant, five point scale [6] | percentage damage caused to the plant, five point scale (Lolium perenne (LOLPE) [7]) | percentage damage caused to the plant, five point scale (Solanum nigrum (SOLNI) [8]) | percentage damage caused to the plant, five point scale [9] | percentage damage caused to the plant, five point scale (Setaria faberi (SETFA) [10]) | percentage damage caused to the plant, five point scale [11] | percentage damage caused to the plant, five point scale [12]
1 | CC1CCC(c2c(Cl)c(C(=O)Nc3nnnn3C)nn(C)c2=O)CC1 (stereo not drawn) [Compound 1.022] | 5 (5=80-100%) | 5 (5=80-100%) | 5 (5=80-100%) | 5 (5=80-100%) | 5 (5=80-100%) | 5 (5=80-100%) | 5 (5=80-100%) | 5 (5=80-100%) | 5 (5=80-100%) | 5 (5=80-100%) | 5 (5=80-100%) | 5 (5=80-100%)
2 | CCCn1nnnc1NC(=O)c1nn(C)c(=O)c(C2CCCCC2)c1Cl [Compound 1.003] | 4 (4=60-79%) | 5 (5=80-100%) | 5 (5=80-100%) | 5 (5=80-100%) | 5 (5=80-100%) | 5 (5=80-100%) | 5 (5=80-100%) | 5 (5=80-100%) | 5 (5=80-100%) | 5 (5=80-100%) | 5 (5=80-100%) | 5 (5=80-100%)
3 | CCCn1nnnc1NC(=O)c1nn(C)c(=O)c(C2CCCC2)c1Cl [Compound 1.006] | 5 (5=80-100%) | 5 (5=80-100%) | 5 (5=80-100%) | 5 (5=80-100%) | 5 (5=80-100%) | 5 (5=80-100%) | 5 (5=80-100%) | 5 (5=80-100%) | 5 (5=80-100%) | 5 (5=80-100%) | 5 (5=80-100%) | 4 (4=60-79%)
4 | Cn1nnnc1NC(=O)c1nn(C)c(=O)c(C2CCC(C)(C)CC2)c1Cl [Compound 1.017] | 5 (5=80-100%) | 5 (5=80-100%) | 5 (5=80-100%) | 5 (5=80-100%) | 5 (5=80-100%) | 5 (5=80-100%) | 5 (5=80-100%) | 5 (5=80-100%) | 5 (5=80-100%) | 5 (5=80-100%) | 5 (5=80-100%) | 4 (4=60-79%)
5 | CCn1nnnc1NC(=O)c1nn(C)c(=O)c(C2CCCCC2)c1Cl [Compound 1.002] | 5 (5=80-100%) | 5 (5=80-100%) | 5 (5=80-100%) | 5 (5=80-100%) | 5 (5=80-100%) | 5 (5=80-100%) | 5 (5=80-100%) | 5 (5=80-100%) | 5 (5=80-100%) | 5 (5=80-100%) | 5 (5=80-100%) | 5 (5=80-100%)
